In patent US7985759B2, “Dipeptidyl peptidase IV inhibitors and processes for their preparation and pharmaceutical compositions containing them” (Matrix Laboratories Ltd., priority 2006, dated 2011):

Molecular target: T1, Human recombinant DPP-IV (Homo sapiens, UniProt P27487)
T1 construct: host or cells: Sf9 insect cells
Experiment: Assay of Dipeptidyl Peptidase IV activity (hydrolysis of Ala-Pro-AFC, fluorometric)
Type: biochemical
Conditions: human recombinant DPP-IV (expressed in insect Sf9 cells), 20 μM Ala-Pro-AFC, 15 min preincubation, 30 min at 37° C., pH 8.0
Procedure: Assay of Dipeptidyl Peptidase IV Activity
The inhibition of proteolytic activity of DPP-IV was assayed by following the hydrolysis of Ala-Pro-7-amino-4-trifluoromethylcoumarin (Ala-Pro-AFC) and fluorometric quantitation of the liberated AFC. Human recombinant DPP-IV (expressed in insect Sf9 cells) was used for the assay. Test compounds were dissolved in dimethyl sulfoxide (DMSO). Generally, the enzyme (about 20 ng/ml in 100 mM Tris-HCl buffer, pH 8.0) was preincubated in the absence (1% DMSO) and presence of various concentrations of the test compounds for 15 min at 37° C. The reaction was initiated by the addition of 20 μM Ala-Pro-AFC and further incubated for 30 min at 37° C. The AFC liberated was measured in a spectrofluorometer with excitation and emission wavelengths set at 400 nm and 510 nm, respectively. Results are expressed as percent inhibition of enzyme activity. A reference standard (a known inhibitor of DPP-IV) was always included in the assay.

T1 sequence (P27487 whole entry): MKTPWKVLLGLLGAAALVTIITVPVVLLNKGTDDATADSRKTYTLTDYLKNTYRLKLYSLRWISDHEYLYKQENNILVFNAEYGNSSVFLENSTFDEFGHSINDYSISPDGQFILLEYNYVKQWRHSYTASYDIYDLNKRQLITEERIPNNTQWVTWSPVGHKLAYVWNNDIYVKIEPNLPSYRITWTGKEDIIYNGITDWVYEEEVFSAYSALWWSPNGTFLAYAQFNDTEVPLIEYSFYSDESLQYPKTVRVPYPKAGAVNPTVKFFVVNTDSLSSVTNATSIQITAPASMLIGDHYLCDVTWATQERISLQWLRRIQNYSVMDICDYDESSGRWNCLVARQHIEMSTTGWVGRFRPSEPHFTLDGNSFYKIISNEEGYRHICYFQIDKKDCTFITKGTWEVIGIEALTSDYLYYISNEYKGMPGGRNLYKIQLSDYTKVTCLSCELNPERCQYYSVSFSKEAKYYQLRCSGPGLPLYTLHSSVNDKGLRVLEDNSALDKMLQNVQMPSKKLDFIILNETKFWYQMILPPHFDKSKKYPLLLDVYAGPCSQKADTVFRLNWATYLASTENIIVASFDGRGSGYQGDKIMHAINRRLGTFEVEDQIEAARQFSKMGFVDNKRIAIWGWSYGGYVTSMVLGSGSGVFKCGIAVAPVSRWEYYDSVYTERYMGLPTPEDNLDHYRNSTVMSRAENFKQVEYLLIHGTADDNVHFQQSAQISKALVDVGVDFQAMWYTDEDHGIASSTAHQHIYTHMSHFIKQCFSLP

SMILES | IC50
N#C[C@@H]1CCCN1C(=O)CNC12CC3CC1CC(c1ccc(-n4cccc4)cc1)(C3)C2 (stereo partly drawn) [Example 18, (2S)-1-{N-[2-[4-(1H-pyrrol-1-yl)phenyl]hexahydro-2,5-methanopentalen-3a (1H)-yl]glycyl}pyrrolidine-2-carbonitrile] | ~30 nM
N#C[C@@H]1CCCN1C(=O)CNC12CC3CC1CC(CN1C(=O)c4ccccc4C1=O)(C3)C2 (stereo partly drawn) [Example 10, (2S)-1-{N-[2-[(1,3-dioxo-1,3-dihydro-2H-isoindol-2-yl)methyl]hexahydro-2,5-methanopentalen-3a(1H)-yl]glycyl}pyrrolidine-2-carbonitrile] | ~30 nM
N#C[C@@H]1C[C@H](F)CN1C(=O)CNC12CC3CC1CC(Cn1cncn1)(C3)C2 (stereo partly drawn) [Example 2, (2S,4S)-4-fluoro-1-{N-[2-(1H-1,2,4-triazol-1-ylmethyl)hexahydro-2,5-methanopentalen-3a(1H)-yl]glycyl}pyrrolidine-2-carbonitrile] | 2.8 nM
N#C[C@@H]1CCCN1C(=O)CNC12CC3CC1CC(c1ccc(N4CCCC4=O)cc1)(C3)C2 (stereo partly drawn) [Example 15, (2S)-1-{N-[2-[4-(2-oxopyrrolidin-1-yl)phenyl]hexahydro-2,5-methanopentalen-3a(1H)-yl]glycyl}pyrrolidine-2-carbonitrile] | 4 nM
N#C[C@@H]1C[C@H](F)CN1C(=O)CNC12CC3CC1CC(c1ccc(N4CCCC4=O)cc1)(C3)C2 (stereo partly drawn) [Example 16, (2S,4S)-4-fluoro-1-{N-[2-[4-(2-oxopyrrolidin-1-1)phenyl]hexahydro-2,5-methanopentalen-3a(1H)-yl]glycyl}pyrrolidine-2-carbonitrile] | 0.95 nM
N#C[C@@H]1CCCN1C(=O)CNC12CC3CC1CC(CN1CCCS1(=O)=O)(C3)C2 (stereo partly drawn) [Example 8, (2S)-1-{N-[2-[(1,1-dioxidoisothiazolidin-2-yl)methyl]hexahydro-2,5-methanopentalen-3a(1H)-yl]glycyl}pyrrolidine-2-carbonitrile] | 22 nM
N#C[C@@H]1CCCN1C(=O)CNC12CC3CC1CC(c1ccc(N4CCCS4(=O)=O)cc1)(C3)C2 (stereo partly drawn) [Example 11, (2S)-1-{N-[2-[4-(1,1-dioxidoisothiazolidin-2-yl)phenyl]hexahydro-2,5-methanopentalen-3a(1H)-yl]glycyl}pyrrolidine-2-carbonitrile] | 20 nM
N#C[C@@H]1CCCN1C(=O)CNC12CC3CC1CC(Cn1cncn1)(C3)C2 (stereo partly drawn) [Example 1, (2S)-1-[1H-1,2,4-triazol-1-ylmethyl(tricyclo[3.3.1.0^3,7]non-3-ylamino)acetyl]pyrrolidine-2-carbonitrile] | 8.1 nM
N#C[C@@H]1CCCN1C(=O)CNC12CC3CC1CC(Cn1cnnn1)(C3)C2 (stereo partly drawn) [Example 5, (2S)-1-{N-[2-(1H-tetrazol-1-ylmethyl)hexahydro-2,5-methanopentalen-3a(1H)-yl]glycyl}pyrrolidine-2-carbonitrile] | 11 nM
CN1CCN(CC23CC4CC(C2)C(NCC(=O)N2CCC[C@H]2C#N)(C4)C3)CC1 (stereo partly drawn) [Example 6, (2S)-1-{N-[2-[(4-methylpiperazin-1-yl)methyl]hexahydro-2,5-methanopentalen-3a (1H)-yl]glycyl}pyrrolidine-2-carbonitrile] | 100 nM
N#C[C@@H]1C[C@H](F)CN1C(=O)CNC12CC3CC1CC(c1ccc(N4CCCS4(=O)=O)cc1)(C3)C2 (stereo partly drawn) [Example 12, (2S,4S)-1-{N-[2-[4-(1,1-dioxidoisothiazolidin-2-yl)phenyl]hexahydro-2,5-methanopentalen-3a(1H)-yl]glycyl}-4-fluoropyrrolidine-2-carbonitrile] | 5 nM
N#C[C@@H]1CCCN1C(=O)CNC12CC3CC1CC(CN1CCSCC1)(C3)C2 (stereo partly drawn) [Example 7, (2S)-1-{N-[2-(thiomorpholin-4-ylmethyl)hexahydro-2,5-methanopentalen-3a(1H)-yl]glycyl}pyrrolidine-2-carbonitrile] | 30 nM
N#C[C@@H]1CCCN1C(=O)CNC12CC3CC1CC(c1ccc([N+](=O)[O-])cc1)(C3)C2 (stereo partly drawn) [Example 29, (2S)-1-{N-[2-(4-nitrophenyl)hexahydro-2,5-methanopentalen-3a(1H)-yl]glycyl}pyrrolidine-2-carbonitrile] | ~30 nM
N#C[C@@H]1CCCN1C(=O)CNC12CC3CC1CC(O)(C3)C2 (stereo partly drawn) [Example 21, (2S)-1-{[(1-hydroxytricyclo[3.3.1.0^3,7]non-3-yl)amino]acetyl}pyrrolidine-2-carbonitrile] | 64.5 nM
N#C[C@@H]1CCCN1C(=O)CNC12CC3CC1CC(N)(C3)C2 (stereo partly drawn) [Example 24, (2S)-1-{[(1-aminotricyclo[3.3.1.0^3,7]non-3-yl)amino]acetyl}pyrrolidine-2-carbonitrile] | 100 nM
N#C[C@@H]1CCCN1C(=O)CNC12CC3CC1CC(N1CCCS1(=O)=O)(C3)C2 (stereo partly drawn) [Example 27, (2S)-1-{N-[2-(1,1-dioxidoisothiazolidin-2-yl)hexahydro-2,5-methanopentalen-3a(1H)-yl]glycyl}pyrrolidine-2-carbonitrile] | 30 nM

SMILES | IC50
CCOC12CC3CC(C1)C(NCC(=O)N1CCC[C@H]1C#N)(C3)C2 (stereo partly drawn) [Example 23, (2S)-1-{[(1-ethoxytricyclo[3.3.1.0^3,7]non-3-yl)amino]acetyl}pyrrolidine-2-carbonitrile] | 11.9 nM
N#C[C@@H]1CCCN1C(=O)CNC12CC3CC1CC(F)(C3)C2 (stereo partly drawn) [Example 25, (2S)-1-[N-(2-fluorohexahydro-2,5-methanopentalen-3a(1H)-yl)glycyl]pyrrolidine-2-carbonitrile] | 100 nM
CN1CCN(c2ccc(C34CC5CC(C3)C(NCC(=O)N3CCC[C@H]3C#N)(C5)C4)cc2)C1=O (stereo partly shown) [Example 32] | 53.6 nM
N#C[C@@H]1CCCN1C(=O)CNC12CC3CC1CC(CN1C(=O)CSC1=O)(C3)C2 (stereo partly drawn) [Example 9, (2S)-1-{N-[2-[(2,4-dioxo-1,3-thiazolidin-3-yl)methyl]hexahydro-2,5-methanopentalen-3a(1H)-yl]glycyl}pyrrolidine-2-carbonitrile] | 31.2 nM
N#C[C@@H]1CCCN1C(=O)CNC12CC3CC(CC1C3)C2 [Example 20, (2S)-1-[(tricyclo[3.3.1.0^3,7]non-3-ylamino)acetyl]pyrrolidine-2-carbonitrile] | 30 nM
N#C[C@@H]1CSCN1C(=O)CNC12CC3CC1CC(Cn1cncn1)(C3)C2 (stereo partly drawn) [Example 4, (4R)-3-{N-[2-(1H-1,2,4-triazol-1-ylmethyl)hexahydro-2,5-methanopentalen-3a(1H)-yl]glycyl}-1,3-thiazolidine-4-carbonitrile] | 7 nM
N#C[C@@H]1CSCN1C(=O)CNC12CC3CC1CC(c1ccc(N4CCCC4=O)cc1)(C3)C2 (stereo partly drawn) [Example 17, (4R)-3-{N-[2-[4-(2-oxopyrrolidin-1-yl)phenyl]hexahydro-2,5-methanopentalen-3a(1H)-yl]glycyl}-1,3-thiazolidine-4-carbonitrile] | 8.7 nM
N#C[C@@H]1CCCN1C(=O)CNC12CC3CC1CC(c1ccc(N4CCNC4=O)cc1)(C3)C2 (stereo partly drawn) [Example 19, (2S)-1-{N-[2-[4-(2-oxoimidazolidin-1-yl)phenyl]hexahydro-2,5-methanopentalen-3a(1H)-yl]glycyl}pyrrolidine-2-carbonitrile] | 15.4 nM
N#C[C@@H]1CCCN1C(=O)CNC12CC3CC1CC(c1ccccc1)(C3)C2 (stereo partly drawn) [Example 28, (2S)-1-[N-(2-phenylhexahydro-2,5-methanopentalen-3a(1H)-yl)glycyl]pyrrolidine-2-carbonitrile] | 30 nM
N#C[C@@H]1CCCN1C(=O)CNC12CC3CC1CC(c1ccc(N)cc1)(C3)C2 (stereo partly drawn) [Example 30, (2S)-1-{N-[2-(4-aminophenyl)hexahydro-2,5-methanopentalen-3a(1H)-yl]glycyl}pyrrolidine-2-carbonitrile] | ~32.4 nM
N#C[C@@H]1CCCN1C(=O)CNC12CC3CC1CC(Cc1ncon1)(C3)C2 (stereo partly shown) [Example 31] | 21 nM
N#C[C@@H]1C[C@@H](F)CN1C(=O)CNC12CC3CC1CC(Cn1cncn1)(C3)C2 (stereo partly drawn) [Example 3, (2S,4R)-4-fluoro-1-{N-[2-(1H-1,2,4-triazol-1-ylmethyl)hexahydro-2,5-methanopentalen-3a(1H)-yl]glycyl}pyrrolidine-2-carbonitrile] | > 300 nM
N#C[C@@H]1CCCN1C(=O)CNC12CC3CC1CC(N1CCCC1=O)(C3)C2 (stereo partly drawn) [Example 26, (2S)-1-{N-[2-(2-oxopyrrolidin-1-yl)hexahydro-2,5-methanopentalen-3a(1H)-yl]glycyl}pyrrolidine-2-carbonitrile] | 21.8 nM
N#C[C@@H]1CSCN1C(=O)CNC12CC3CC1CC(c1ccc(N4CCCS4(=O)=O)cc1)(C3)C2 (stereo partly drawn) [Example 14, (4R)-3-{N-[2-[4-(1,1-dioxidoisothiazolidin-2-yl)phenyl]hexahydro-2,5-methanopentalen-3a(1H)-yl]glycyl}-1,3-thiazolidine-4-carbonitrile] | 6.4 nM
COC12CC3CC(C1)C(NCC(=O)N1CCC[C@H]1C#N)(C3)C2 (stereo partly drawn) [Example 22, (2S)-1-{[(1-methoxytricyclo[3.3.1.0^3,7]non-3-yl)amino]acetyl}pyrrolidine-2-carbonitrile] | 30 nM
